# Where a SMILES comes first, the peptide text is derived from it. [ ]: non-standard residue; d: D form. The star is where a group is joined. NHCH2CH2OH = OCCN*; For = O=C*
# Columns and labels:
# [1] = test system: Streptococcus pyogenes SSI-9; assay: Antibacterial activity assay of bead-derived peptides (three concentrations); assay type: cell-based; design: key: +++: inhibition by the 640-fold diluted peptide solution; ++: inhibition by the 160-fold diluted solution; +: inhibition by the 40-fold diluted solution; -: no inhibition; settings: S. pyogenes, bead-derived peptide solution, three concentrations
# How it was run: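 Bead-derived library peptide stocks in DMSO were tested undiluted and after 4- and 16-fold DMSO dilution against S. pyogenes SSI-9 (2 × 10^5 CFU/well) in cation-adjusted Mueller Hinton Broth with 5% laked horse blood. After 18 h at 37 °C, wells were scored for precipitation of grown cells.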
# [2] = H+/Na+ transport assay of bead-derived peptides (one-point); assay type: biochemical; design: key: relative activity; mean of two control wells = 1.00; settings: bead-derived peptide solution, EYPC/EYPG LUVs;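 also: relative to parent gramicidin A activity set to 1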
# How it was run: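 One-point screen: peptide + pyranine-loaded LUVs, 30 min RT with vortexing, 96-well. Read-out is fluorescence intensity scaled as 100 × (Ix – I0)/(Imax – I0). Imax from Triton X-100, I0 from untreated vesicles, and the mean of the two control wells is set to 1.00.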
# [3] = test system: P388 mouse leukemia cells; settings: 92 h
# How it was run: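 First, library peptide stocks are diluted 250-fold in RPMI1640 with 10% heat-inactivated FBS. Next, they are mixed with P388 cells to give 1 × 10^4 cells/mL and incubated 92 h at 37 °C, 5% CO2. Finally, viability (%) is scored by WST-1 absorbance at 415 nm.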
Structure (SMILES),antibacterial activity [1],H+/Na+ transport activity normalized against the value of 1 (1.00) [2],cell viability/% [3] [%]
CC(C)C[C@@H](NC(=O)[C@H](C)NC(=O)CNC(=O)[C@@H](NC=O)C(C)C)C(=O)N[C@@H](C)C(=O)N[C@H](CC(C)C)C(=O)N[C@H](C(=O)N[C@@H](C(=O)N[C@@H](Cc1c[nH]c2ccccc12)C(=O)N[C@H](CC(C)C)C(=O)N[C@@H](Cc1c[nH]c2ccccc12)C(=O)N[C@H](CC(C)C)C(=O)N[C@@H](Cc1c[nH]c2ccccc12)C(=O)N[C@@H](C(=O)N[C@@H](Cc1c[nH]c2ccccc12)C(=O)NCCO)C(C)C)[C@H](C)O)C(C)C [compound 11295] (For-VGA[dL]A[dL]V[dT]W[dL]W[dL]W[dV]W-NHCH2CH2OH),-,1.12,78.1
CC(C)C[C@@H](NC(=O)[C@@H](NC(=O)[C@H](NC(=O)[C@H](C)NC(=O)[C@H](NC(=O)[C@H](C)NC(=O)CNC(=O)[C@@H](NC=O)C(C)C)C(C)C)C(C)C)C(C)C)C(=O)N[C@@H](Cc1c[nH]c2ccccc12)C(=O)N[C@@H](C(=O)N[C@@H](Cc1c[nH]c2ccccc12)C(=O)N[C@@H](C(=O)N[C@@H](Cc1c[nH]c2ccccc12)C(=O)N[C@@H](C(=O)N[C@@H](Cc1c[nH]c2ccccc12)C(=O)NCCO)C(C)C)C(C)C)C(C)C [compound 1873] (For-VGA[dV]A[dV]V[dL]W[dV]W[dV]W[dV]W-NHCH2CH2OH),-,1.09,100.0
CNC(=O)C[C@@H](NC(=O)[C@@H](NC(=O)[C@@H](CC(C)C)NC(=O)[C@H](C)NC(=O)[C@@H](CC(C)C)NC(=O)[C@H](C)NC(=O)CNC(=O)[C@@H](NC=O)C(C)C)C(C)C)C(=O)N[C@@H](Cc1c[nH]c2ccccc12)C(=O)N[C@H](CC(C)C)C(=O)N[C@@H](Cc1c[nH]c2ccccc12)C(=O)N[C@H](CC(C)C)C(=O)N[C@@H](Cc1c[nH]c2ccccc12)C(=O)N[C@@H](C(=O)N[C@@H](Cc1c[nH]c2ccccc12)C(=O)NCCO)[C@H](C)O [compound 3929] (For-VGA[dL]A[dL]V[dD](NHMe)W[dL]W[dL]W[dT]W-NHCH2CH2OH),-,1.14,100.0
CC(C)C[C@@H](NC(=O)[C@H](C)NC(=O)[C@H](NC(=O)[C@H](C)NC(=O)CNC(=O)[C@@H](NC=O)C(C)C)C(C)C)C(=O)N[C@H](C(=O)N[C@H](CC(C)C)C(=O)N[C@@H](Cc1c[nH]c2ccccc12)C(=O)N[C@@H](C(=O)N[C@@H](Cc1c[nH]c2ccccc12)C(=O)N[C@H](CC(C)C)C(=O)N[C@@H](Cc1c[nH]c2ccccc12)C(=O)N[C@H](CC(C)C)C(=O)N[C@@H](Cc1c[nH]c2ccccc12)C(=O)NCCO)C(C)C)C(C)C [compound 5699] (For-VGA[dV]A[dL]V[dL]W[dV]W[dL]W[dL]W-NHCH2CH2OH),+,1.05,36.7
CNC(=O)C[C@@H](NC(=O)[C@H](Cc1c[nH]c2ccccc12)NC(=O)[C@@H](CC(C)C)NC(=O)[C@H](Cc1c[nH]c2ccccc12)NC(=O)[C@H](NC(=O)[C@H](Cc1c[nH]c2ccccc12)NC(=O)[C@H](NC(=O)[C@@H](NC(=O)[C@@H](CC(C)C)NC(=O)[C@H](C)NC(=O)[C@@H](CC(C)C)NC(=O)[C@H](C)NC(=O)CNC(=O)[C@@H](NC=O)C(C)C)C(C)C)C(C)C)C(C)C)C(=O)N[C@@H](Cc1c[nH]c2ccccc12)C(=O)NCCO [compound 10678] (For-VGA[dL]A[dL]V[dV]W[dV]W[dL]W[dD](NHMe)W-NHCH2CH2OH),-,1.10,76.0
CC(C)C[C@@H](NC(=O)[C@H](Cc1c[nH]c2ccccc12)NC(=O)[C@H](NC(=O)[C@@H](NC(=O)[C@H](NC(=O)[C@H](C)NC(=O)[C@H](NC(=O)[C@H](C)NC(=O)CNC(=O)[C@@H](NC=O)C(C)C)C(C)C)C(C)C)C(C)C)C(C)C)C(=O)N[C@@H](Cc1c[nH]c2ccccc12)C(=O)N[C@@H](C(=O)N[C@@H](Cc1c[nH]c2ccccc12)C(=O)N[C@@H](C(=O)N[C@@H](Cc1c[nH]c2ccccc12)C(=O)NCCO)C(C)C)C(C)C [compound 4830] (For-VGA[dV]A[dV]V[dV]W[dL]W[dV]W[dV]W-NHCH2CH2OH),++,1.18,89.5
CC(C)C[C@@H](NC(=O)[C@H](C)NC(=O)CNC(=O)[C@@H](NC=O)C(C)C)C(=O)N[C@@H](C)C(=O)N[C@@H](C(=O)N[C@H](C(=O)N[C@@H](C(=O)N[C@@H](Cc1c[nH]c2ccccc12)C(=O)N[C@@H](C(=O)N[C@@H](Cc1c[nH]c2ccccc12)C(=O)N[C@H](CC(C)C)C(=O)N[C@@H](Cc1c[nH]c2ccccc12)C(=O)N[C@@H](C(=O)N[C@@H](Cc1c[nH]c2ccccc12)C(=O)NCCO)C(C)C)C(C)C)[C@H](C)O)C(C)C)C(C)C [compound 4427] (For-VGA[dL]A[dV]V[dT]W[dV]W[dL]W[dV]W-NHCH2CH2OH),-,1.18,100.0
CC(C)C[C@@H](NC(=O)[C@H](C)NC(=O)CNC(=O)[C@@H](NC=O)C(C)C)C(=O)N[C@@H](C)C(=O)N[C@H](CC(C)C)C(=O)N[C@H](C(=O)N[C@H](CC(C)C)C(=O)N[C@@H](Cc1c[nH]c2ccccc12)C(=O)N[C@@H](C(=O)N[C@@H](Cc1c[nH]c2ccccc12)C(=O)N[C@@H](C(=O)N[C@@H](Cc1c[nH]c2ccccc12)C(=O)N[C@@H](C(=O)N[C@@H](Cc1c[nH]c2ccccc12)C(=O)NCCO)C(C)C)C(C)C)C(C)C)C(C)C [compound 11323] (For-VGA[dL]A[dL]V[dL]W[dV]W[dV]W[dV]W-NHCH2CH2OH),-,1.02,5.2
CC(C)C[C@@H](NC(=O)[C@H](C)NC(=O)CNC(=O)[C@@H](NC=O)C(C)C)C(=O)N[C@@H](C)C(=O)N[C@H](CC(C)C)C(=O)N[C@H](C(=O)N[C@H](CC(C)C)C(=O)N[C@@H](Cc1c[nH]c2ccccc12)C(=O)N[C@@H](C(=O)N[C@@H](Cc1c[nH]c2ccccc12)C(=O)N[C@@H](C(=O)N[C@@H](Cc1c[nH]c2ccccc12)C(=O)N[C@@H](C(=O)N[C@@H](Cc1c[nH]c2ccccc12)C(=O)NCCO)C(C)C)[C@H](C)O)C(C)C)C(C)C [compound 5178] (For-VGA[dL]A[dL]V[dL]W[dV]W[dT]W[dV]W-NHCH2CH2OH),-,1.22,100.0
CNC(=O)C[C@@H](NC(=O)[C@@H](NC(=O)[C@H](NC(=O)[C@H](C)NC(=O)[C@@H](CC(C)C)NC(=O)[C@H](C)NC(=O)CNC(=O)[C@@H](NC=O)C(C)C)C(C)C)C(C)C)C(=O)N[C@@H](Cc1c[nH]c2ccccc12)C(=O)N[C@H](CC(C)C)C(=O)N[C@@H](Cc1c[nH]c2ccccc12)C(=O)N[C@@H](C(=O)N[C@@H](Cc1c[nH]c2ccccc12)C(=O)N[C@@H](C(=O)N[C@@H](Cc1c[nH]c2ccccc12)C(=O)NCCO)C(C)C)C(C)C [compound 2932] (For-VGA[dL]A[dV]V[dD](NHMe)W[dL]W[dV]W[dV]W-NHCH2CH2OH),-,1.27,87.5
CC(C)C[C@@H](NC(=O)[C@H](C)NC(=O)CNC(=O)[C@@H](NC=O)C(C)C)C(=O)N[C@@H](C)C(=O)N[C@@H](C(=O)N[C@H](C(=O)N[C@@H](C(=O)N[C@@H](Cc1c[nH]c2ccccc12)C(=O)N[C@H](CC(C)C)C(=O)N[C@@H](Cc1c[nH]c2ccccc12)C(=O)N[C@H](CC(C)C)C(=O)N[C@@H](Cc1c[nH]c2ccccc12)C(=O)N[C@H](CC(C)C)C(=O)N[C@@H](Cc1c[nH]c2ccccc12)C(=O)NCCO)[C@H](C)O)C(C)C)C(C)C [compound 2172] (For-VGA[dL]A[dV]V[dT]W[dL]W[dL]W[dL]W-NHCH2CH2OH),+,1.22,100.0
CC(C)C[C@@H](NC(=O)[C@H](C)NC(=O)[C@H](NC(=O)[C@H](C)NC(=O)CNC(=O)[C@@H](NC=O)C(C)C)C(C)C)C(=O)N[C@H](C(=O)N[C@H](CC(C)C)C(=O)N[C@@H](Cc1c[nH]c2ccccc12)C(=O)N[C@H](CC(C)C)C(=O)N[C@@H](Cc1c[nH]c2ccccc12)C(=O)N[C@@H](C(=O)N[C@@H](Cc1c[nH]c2ccccc12)C(=O)N[C@@H](C(=O)N[C@@H](Cc1c[nH]c2ccccc12)C(=O)NCCO)[C@H](C)O)C(C)C)C(C)C [compound 6943] (For-VGA[dV]A[dL]V[dL]W[dL]W[dV]W[dT]W-NHCH2CH2OH),-,1.02,100.0
CNC(=O)C[C@@H](NC(=O)[C@@H](NC(=O)[C@@H](CC(C)C)NC(=O)[C@H](C)NC(=O)[C@@H](CC(C)C)NC(=O)[C@H](C)NC(=O)CNC(=O)[C@@H](NC=O)C(C)C)C(C)C)C(=O)N[C@@H](Cc1c[nH]c2ccccc12)C(=O)N[C@@H](C(=O)N[C@@H](Cc1c[nH]c2ccccc12)C(=O)N[C@H](CC(C)C)C(=O)N[C@@H](Cc1c[nH]c2ccccc12)C(=O)N[C@H](CC(C)C)C(=O)N[C@@H](Cc1c[nH]c2ccccc12)C(=O)NCCO)C(C)C [compound 6703] (For-VGA[dL]A[dL]V[dD](NHMe)W[dV]W[dL]W[dL]W-NHCH2CH2OH),-,1.17,100.0

# Reference: PMC7531004, “Discovery of gramicidin A analogues with altered activities by multidimensional screening of a one-bead-one-compound library” (Nature Communications, 2020)
